Legend:
[1] = tested on: MIAPaCa-2 pancreatic cancer cells; format: cell-based; conditions: CoQ10 (100 μM) pre-treatment (6 hours) and co-treatment regimen, FIGS. 11-14
[2] = tested on: MIAPaCa-2, SKOV-3, PC-3, HT-29, MCF7, MDA-MB231, SKBR-3, A549, Hep3B cancer cells; assay: In vitro CoQ10 monotherapy of various cancer cell types; format: cell-based; conditions: 100 μM CoQ10 for 48-72 hours; FIG. 16
Method: Cells were treated with 100 μM CoQ10 for 48-72 hours.

cells = assay: Relative timing of CoQ10 and chemotherapeutic agents, cell killing in vitro (Example 7); format: cell-based; conditions: Example 7, written in present tense
Method: Using the methods in Example 6, cells are tested to determine if the relative timing of treatment of cells with CoQ10 and chemotherapeutic agents has an effect on cell killing, e.g., by promotion of apoptosis, induction of tumor lysis, inhibition of cell proliferation.
Briefly, cells are cultured as in Example 6. Cells are treated with CoQ10 and chemotherapeutic agents, either alone or in combination, or with appropriate vehicle controls. For the cells treated with both CoQ10 and chemotherapeutic agents, the cells are contacted with the CoQ10 and chemotherapeutic agents in various sequences. Various concentrations of CoQ10 and chemotherapeutic agents are used. Various treatment times are also used.
After treatment with CoQ10 and chemotherapy as indicated, cells are harvested and assayed for viability and apoptosis using the methods provided above. […] The metabolic switch effectuated by CoQ10 in cancer cells is associated with induction of a novel integrated signaling cross-talk involving TP53, Bcl-2/Bax and VEGF that results in the recapitulation of apoptotic pathways.

[3] = Prior experiments, signs of toxicity; format: in vivo; conditions: three times per week at up to 50 mg/kg
Method: Sterile CoQ10 formula and the suitable sterile control is administered intravenously. CoQ10 doses are administered based on ongoing results. […] The effect of CoQ10 is compared with other chemotherapy regimens specific for each cancer line. Another arm of the study evaluates synergistic effects between CoQ10 and other chemotherapeutic agents.

[4] = tested on: normal cells, including keratinocytes and dermal fibroblasts; assay: Proliferation and migration of normal cells; format: cell-based
[5] = tested on: MDA-MB213 breast cancer cells; assay: Basal oxygen consumption rate (OCR) and extracellular acidification rate (ECAR); format: cell-based; conditions: 100 μM CoQ10 for 24 hours, FIG. 17
Method: Cells were treated with 100 μM CoQ10 for 24 hours.
Mitochondria represent a significant source of ROS which are known to participate in activation of cell death pathways.

[6] = background statement; cited from earlier work

COC1=C(OC)C(=O)C(C/C=C(\C)CC/C=C(\C)CC/C=C(\C)CC/C=C(\C)CC/C=C(\C)CC/C=C(\C)CC/C=C(\C)CC/C=C(\C)CC/C=C(\C)CCC=C(C)C)=C(C)C1=O [CoQ10, Coenzyme Q10]
Cytotoxic potential of gemcitabine [1]: augmented the cytotoxic potential of gemcitabine
Cell death in cancer cells [2]: increased cell death
Cell killing, pretreatment with CoQ10, discontinuation, then chemotherapy (cells): also effective in cell killing
Cell killing, pretreatment with CoQ10 followed by concurrent CoQ10 and chemotherapy (cells): effective in cell killing
Cell killing, pretreatment with CoQ10 prior to chemotherapy (cells): more effective in cell killing than co-treatment with CoQ10 and chemotherapy or treatment with CoQ10 after chemotherapy
Signs of toxicity [3]: no signs of toxicity
Proliferation and migration in normal cells [4]: increased proliferation and migration
Ratio of OCR to ECAR [5]: higher ratio of OCR to ECAR
Lipophilicity [6]: very lipophilic
Solubility in water [6]: insoluble in water
